Columns and labels:
[1] = target: T1, human melatonin 1 receptors (human MT1 receptors) (Homo sapiens, UniProt P48039); assay: Melatonin receptor binding inhibitory test (MT1); settings: 2-[125I] Iodomelatonin 400 pM solution, membrane fraction of CHO-hMelR7 cells, 25° C. for 2.5 hr
T1 construct: expressed in transfected cells
Procedure: Biochim Biophys Acta. Vol. 1219(2), pp. 251-259, 1994) to give plasmid pAKKO-hMelR7 for animal cell expression. CHO/dhfr-cells (ATCC, #CRL-9096) were plated at a concentration of 0.3×10^6 cells/dish in a 6 cm culture dish (Becton Dickinson), and cultured under the conditions of 37° C., 5% CO2 for 48 hr. The cells were transfected with pAKKO-hMelR7 plasmid DNA (5 μg) using […] Transfection Kit (Amersham, #27-9268-01). The transfected cells were cultured in Dulbecco's modified Eagle medium (DMEM) (Sigma, #D6046) containing 10% dialyzed FBS ([…]), 1× Non-Essential Amino Acid (Invitrogen, #11140-050) and 50 μg/mL Gentamycin (Invitrogen, #15750-060), and the cell line that stably expressed the plasmid gene was selected. By a receptor binding assay using 2-[^125I] […] (3) Preparation of Cellular Membrane Fraction of CHO Cell (CHO-hMelR7 and CHO-hMT2) Stably Expressing Human MT1 and MT2 Receptors CHO-hMelR7 and CHO-hMT2 cells were plated using Cellfactory (Nunc, #170009) under the conditions of 1×10^8 cells/2000 mL/flask. The cells were grown to confluent, and recovered by the following method. As the medium for CHO-hMelR7 and CHO-hMT2, MEM α containing 10% FBS and penicillin/streptomycin was used. 300 ng/mL of geneticin was added to the medium for CHO-hMT2. The medium was discarded, cells were washed twice with 200 mL of EDTA/PBS(-), 200 mL of EDTA/PBS(-) was further added, and the cells were stood still at room temperature for 20 min until they were released. The cells were recovered in four 50 mL tubes (Becton Dickinson, #352070), and centrifuged at 1,500 rpm for 10 min at 4° C. using a low speed cooling centrifuge (Hitachi, CF7D2). The supernatant was discarded, the pellets in the four tubes were suspended in 10 mL of PBS(-), and combined in one tube (Becton Dickinson, #352070). The mixture was further centrifuged at 1,500 rpm for 10 min at 4° C., and the obtained pellets were suspended in 20 mL of ice-cooled homogenizing buffer [10 mM NaHCO3, 5 mM EDTA, Protease inhibitor Complete (Roche), pH 7.4]. The cell suspension was homogenized 3 times using a polytron homogenizer at 20,000 rpm for 30 sec. The obtained homogenate was centrifuged (2,000 rpm, 10 min, 4° C.) using a low speed cooling centrifuge. The supernatant was recovered in an ultracentrifugation tube and ultracentrifuged (40,000 rpm, 60 min, 4° C.) using an ultracentrifuge (Beckman, […]). To the obtained pellets was added a suspending buffer [50 mM Tris-HCl, 1 mM EDTA, Protease inhibitor Complete (Roche), pH 7.4], and the pellets were suspended by pipetting. The protein concentration of this suspension was measured, diluted to 2 mg/mL to give cellular membrane fractions of CHO-hMelR7 and CHO-hMT2 cells. […] Protein was quantified using BCA protein assay kit (Pierce) with BSA as the standard. (4) Preparation of Membrane Fraction Suspension Immediately before use, the membrane fractions of CHO-hMelR7 and CHO-hMT2 cells of the above-mentioned (3) were diluted 20-fold with assay buffer (50 mM Tris-HCl, pH 7.7). (5) Preparation of 2-[^125I] […] (6) Binding Reaction The assay buffer (80 μL) of the above-mentioned (4) was added to each well of a 96-well plate (type 3363, Corning). […] (7) Measurement Using a cell harvester (PerkinElmer), the binding reaction mixture in each well of the 96-well plate was transferred to a treated (immersed in 50 mM Tris, pH 7.7 in advance) filter plate (UniFilter GF/C, PerkinElmer) and filtered. After filtration, the plate was washed 4 times with the assay buffer, and dried in a dryer (42° C.) for 2 hr or more. 25 μL of a liquid scintillator (MicroScint O, PerkinElmer) was added to each well of the filter plate after drying, and the luminescence of scintillator was measured by TopCount (PerkinElmer) for 1 min. Specific binding is a value obtained by subtracting nonspecific binding from the total binding.

T1 sequence (P48039 whole entry): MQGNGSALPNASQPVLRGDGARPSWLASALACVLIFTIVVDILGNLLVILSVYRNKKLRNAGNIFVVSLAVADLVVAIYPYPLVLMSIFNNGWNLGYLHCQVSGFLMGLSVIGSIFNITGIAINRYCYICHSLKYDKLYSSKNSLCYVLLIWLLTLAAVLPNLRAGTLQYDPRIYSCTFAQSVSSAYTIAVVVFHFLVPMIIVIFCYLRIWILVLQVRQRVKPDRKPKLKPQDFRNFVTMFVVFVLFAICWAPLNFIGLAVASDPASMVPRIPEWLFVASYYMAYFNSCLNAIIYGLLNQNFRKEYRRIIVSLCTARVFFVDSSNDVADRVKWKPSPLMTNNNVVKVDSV

Row | melting point | IC50 [1] | SMILES
1 | 96 to 97 °C | ≤ 100 nM | CCC(=O)NCCc1cnn2ccc3c(c12)CCO3 [Example 4, N-[2-(8,9-dihydrofuro[3,2-c]pyrazolo[1,5-a]pyridin-1-yl)ethyl]propanamide]
2 | 160 to 162 °C | ≤ 100 nM | CC(=O)NCCc1c(-c2ccc(F)cc2)nn2ccc3c(c12)CCO3 [Example 15, N-{2-[2-(4-fluorophenyl)-8,9-dihydrofuro[3,2-c]pyrazolo[1,5-a]pyridin-1-yl]ethyl}acetamide]
3 | 173 to 175 °C | ≤ 100 nM | CCC(=O)NCC(C)c1c(CC)nn2ccc3c(c12)CCO3 (stereo not shown) [Example 38, N-[2-(2-ethyl-8,9-dihydrofuro[3,2-c]pyrazolo[1,5-a]pyridin-1-yl)propyl]propanamide]
4 | 151 to 153 °C | ≤ 100 nM | CCc1nn2ccc3c(c2c1C(C)CNC(C)=O)CCO3 (stereo not shown) [Example 37, N-[2-(2-ethyl-8,9-dihydrofuro[3,2-c]pyrazolo[1,5-a]pyridin-1-yl)propyl]acetamide]
5 | 170 to 171 °C | ≤ 100 nM | CCC(=O)NCCc1c(-c2ccc(F)cc2)nn2ccc3c(c12)CCO3 [Example 16, N-{2-[2-(4-fluorophenyl)-8,9-dihydrofuro[3,2-c]pyrazolo[1,5-a]pyridin-1-yl]ethyl}propanamide]
6 | 161 to 163 °C | ≤ 100 nM | CCC(=O)NCCc1c(-c2ccccc2)nn2ccc3occc3c12 [Example 2, N-[2-(2-phenylfuro[3,2-c]pyrazolo[1,5-a]pyridin-1-yl)ethyl]propanamide]
7 | 169 to 170 °C | ≤ 100 nM | CCC(=O)NCCc1c(-c2ccccc2)nn2ccc3c(c12)CCO3 [Example 8, N-[2-(2-phenyl-8,9-dihydrofuro[3,2-c]pyrazolo[1,5-a]pyridin-1-yl)ethyl]propanamide]
8 |  | ≤ 100 nM | CC(=O)NCCc1c(-c2ccccc2)cn2ccc3c(c12)CCO3 [Example 17, N-[2-(8-phenyl-1,2-dihydrofuro[2,3-g]indolizin-9-yl)ethyl]acetamide]
9 | 58 to 59 °C | ≤ 100 nM | CCCC(=O)NCCc1cnn2ccc3c(c12)CCO3 [Example 5, N-[2-(8,9-dihydrofuro[3,2-c]pyrazolo[1,5-a]pyridin-1-yl)ethyl]butanamide]
10 | 174 to 175 °C | ≤ 100 nM | CC(=O)NCCc1cnn2ccc3c(c12)CCO3 [Example 3, N-[2-(8,9-dihydrofuro[3,2-c]pyrazolo[1,5-a]pyridin-1-yl)ethyl]acetamide]

Further lines, the compound ahead of its results:

Row | SMILES | melting point | IC50 [1]
11 | CCC(=O)NCCC1=CCc2cnc3c(c21)CCO3 [Example 29, N-[2-(1,6-dihydro-2H-cyclopenta[d]furo[2,3-b]pyridin-8-yl)ethyl]propanamide] | 111 to 112 °C | ≤ 100 nM
12 | CCC(=O)NCCC1CCc2cnc3c(c21)CCO3 (stereo not shown) [Example 22, N-[2-(1,6,7,8-tetrahydro-2H-cyclopenta[d]furo[2,3-b]pyridin-8-yl)ethyl]propanamide] |  | ≤ 100 nM
13 | CCCC(=O)NCCC1CCc2cnc3c(c21)CCO3 (stereo not shown) [Example 25, N-[2-(1,6,7,8-tetrahydro-2H-cyclopenta[d]furo[2,3-b]pyridin-8-yl)ethyl]butanamide] |  | ≤ 100 nM
14 | CCC(=O)NCCC1=C(C(C)C)Cc2cnc3c(c21)CCO3 [Example 31, N-[2-(7-isopropyl-1,6-dihydro-2H-cyclopenta[d]furo[2,3-b]pyridin-8-yl)ethyl]propanamide] | 168 to 170 °C | ≤ 100 nM
15 | CC(=O)NCCC1=C(C(C)C)Cc2cnc3c(c21)CCO3 [Example 30, N-[2-(7-isopropyl-1,6-dihydro-2H-cyclopenta[d]furo[2,3-b]pyridin-8-yl)ethyl]acetamide] | 164 to 166 °C | ≤ 100 nM
16 | CC(=O)NCCC1CCc2cnc3c(c21)CCO3 (single isomer, unassigned) [Example 20, optically active N-[2-(1,6,7,8-tetrahydro-2H-cyclopenta[d]furo[2,3-b]pyridin-8-yl)ethyl]acetamide] |  | ≤ 100 nM
17 | CCC(=O)NCCC1CCc2cnc3c(c21)CCO3 (single isomer, unassigned) [Example 23, optically active N-[2-(1,6,7,8-tetrahydro-2H-cyclopenta[d]furo[2,3-b]pyridin-8-yl)ethyl]propanamide] |  | ≤ 100 nM
18 | CCc1nn2ccc3oc(C)cc3c2c1CCNC(C)=O [Example 39, N-[2-(2-ethyl-8-methylfuro[3,2-c]pyrazolo[1,5-a]pyridin-1-yl)ethyl]acetamide] | 128 to 129 °C | ≤ 100 nM
